Like-named read-outs stand apart in the source and are kept apart here.

The values below come from article PMC3597730, “Novel Phenolic Inhibitors of Small/Intermediate-Conductance Ca^2+-Activated K^+ Channels, KCa3.1 and KCa2.3” (PLoS ONE, 2013).

Data set [1] concerns mixed KCa3.1 and KCa2.3 currents in PCAEC. The data set can be described thus: Whole-cell patch-clamp of KCa currents in porcine coronary artery endothelial cells. Format: cell-based.
Data set [2] has as its target T1, hKCa2.3 (Homo sapiens, UniProt Q9UGI6).
T1 construct: expressed in transfected cells; host or cells: COS7
Nature of the data set: Whole-cell patch-clamp of hKCa2.3 in COS7 cells. Type of data set: cell-based. (Patch clamp records ionic current or voltage across a cell membrane.)

Data set [3] addresses T2, hKv1.2 (Homo sapiens, UniProt P16389).
T2 construct: expressed in transfected cells; host or cells: B82 murine fibroblasts (Methods)
The data set can be described thus: Whole-cell patch-clamp of cloned hKv1.2. Type of data set: cell-based.

Data set [4] concerns calcium-activated chloride channels. The conditions noted are these: previously shown; no reference given; read-out: reported EC50, calcium-activated chloride channels; cited from earlier work.
The test system of data set [5] is T3, KCa1.1.
T3 construct: KCa1.1 in human U251 glioblastoma cells; endogenous in cells; host or cells: U251 glioblastoma cells
The data set can be described thus: Whole-cell patch-clamp of KCa1.1 in U251 glioblastoma cells. Format: cell-based, human.

The subject of data set [6] is T4, hERG channels.
T4 construct: expressed in transfected cells; gift of Craig January, University of Wisconsin
The data set can be described thus: Whole-cell patch-clamp of hERG tail currents in HEK293 cells. Format: cell-based, human. The conditions noted are these: 13b 1 µM; caffeic acid, flufenamic acid 10 µM (Table S1).

In data set [7] the test system is T5, hERG.
T5 construct: expressed in transfected cells; gift of Craig January, University of Wisconsin
Described as above. Format: cell-based, human. To be noted: human, HEK293 cells expressing hERG, pH 7.4; hERG; compound 10 µM; read-out: % of control at 10 µM. A general note: hERG is a cardiac potassium channel; its block is linked to QT prolongation.

The target of data set [8] is T6, KCa3.1 channels in 3T3 fibroblasts (Mus musculus, UniProt O89109).
T6 construct: KCa3.1 channels in 3T3 fibroblasts; endogenous in cells; host or cells: 3T3-L1 mouse embryonic fibroblasts
The data set can be described thus: Whole-cell patch-clamp of KCa3.1 currents in 3T3 fibroblasts. Type of data set: cell-based.

The test system of data set [9] is non-selective cation channels. To be noted: previously shown; no reference given; read-out: reported EC50, non-selective cation channels; cited from earlier work.

T2 sequence (P16389 whole entry): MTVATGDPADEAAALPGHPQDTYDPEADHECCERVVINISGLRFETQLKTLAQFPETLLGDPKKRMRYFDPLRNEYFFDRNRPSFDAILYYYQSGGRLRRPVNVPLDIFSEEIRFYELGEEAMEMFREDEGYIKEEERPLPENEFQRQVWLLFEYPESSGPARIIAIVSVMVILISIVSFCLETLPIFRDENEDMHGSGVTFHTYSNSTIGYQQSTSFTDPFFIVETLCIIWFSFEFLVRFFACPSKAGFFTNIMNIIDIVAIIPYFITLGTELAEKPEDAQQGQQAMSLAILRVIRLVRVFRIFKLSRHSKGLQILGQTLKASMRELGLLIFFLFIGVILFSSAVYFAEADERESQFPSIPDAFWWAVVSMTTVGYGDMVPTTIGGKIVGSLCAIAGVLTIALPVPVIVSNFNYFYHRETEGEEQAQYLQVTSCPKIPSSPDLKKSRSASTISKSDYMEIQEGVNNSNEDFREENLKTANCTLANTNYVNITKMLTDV
T1 sequence (Q9UGI6 whole entry): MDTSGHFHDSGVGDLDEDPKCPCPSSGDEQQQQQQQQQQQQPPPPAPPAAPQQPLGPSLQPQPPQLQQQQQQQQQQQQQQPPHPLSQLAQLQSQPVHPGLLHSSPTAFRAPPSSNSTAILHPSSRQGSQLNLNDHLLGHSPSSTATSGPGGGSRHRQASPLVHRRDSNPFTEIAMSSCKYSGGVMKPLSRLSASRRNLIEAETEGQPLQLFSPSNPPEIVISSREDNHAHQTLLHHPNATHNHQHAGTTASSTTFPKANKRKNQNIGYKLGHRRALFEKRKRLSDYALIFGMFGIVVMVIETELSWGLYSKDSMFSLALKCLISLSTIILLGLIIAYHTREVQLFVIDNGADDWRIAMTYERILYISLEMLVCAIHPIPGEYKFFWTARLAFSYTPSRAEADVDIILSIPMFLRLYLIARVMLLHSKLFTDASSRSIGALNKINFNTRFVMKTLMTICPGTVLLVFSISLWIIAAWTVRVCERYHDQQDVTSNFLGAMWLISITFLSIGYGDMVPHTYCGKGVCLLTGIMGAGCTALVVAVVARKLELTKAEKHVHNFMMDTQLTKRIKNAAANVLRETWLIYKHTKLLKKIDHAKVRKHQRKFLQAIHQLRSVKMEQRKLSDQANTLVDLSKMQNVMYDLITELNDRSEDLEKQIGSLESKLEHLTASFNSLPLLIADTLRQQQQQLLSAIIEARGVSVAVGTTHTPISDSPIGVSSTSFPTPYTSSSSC

The EC50 is the concentration giving half of the maximal effect. In the case of `O=C(O)c1ccccc1Nc1cccc(C(F)(F)F)c1` [Flufenamic Acid, 2-(3-(trifluoromethyl)phenylamino) benzoic acid, reference compound], the “mixed KCa3.1/KCa2.3 current, % of control” value in [1] (10 µM, n = 2) turned out to be 25±3%; in data set [1] (50 µM, n = 1), 3%. Moreover, the remaining activity at 10 µM in data set [2] (COS-7, hKCa2.3, compound 10 µM, mean ± SEM, n ≥ 3, read-out: % of control at 10 µM) is 104 ± 5%; in [3] (hKv1.2, compound 10 µM, read-out: % of control at 10 µM) it was 106 ± 5%; in data set [8] (KCa3.1 whole-cell current, 3T3 fibroblasts, 1 µM free Ca2+ in pipette, compound 10 µM, mean ± SEM, n ≥3, read-out: % of control at 10 µM), 13 ± 5%; in data set [8] (read-out: KCa3.1 current blocked, % of control), 6 ± 1%. Besides, the remaining activity at 50 µM in data set [2] (COS-7, hKCa2.3, compound 50 µM, mean ± SEM, n ≥ 3, read-out: % of control at 50 µM) was 100 ± 2%; in data set [3] (hKv1.2, compound 50 µM, read-out: % of control at 50 µM), 100 ± 2%; in data set [8] (KCa3.1 whole-cell current, 3T3 fibroblasts, 1 µM free Ca2+ in pipette, compound 50 µM, mean ± SEM, n ≥3, read-out: % of control at 50 µM), 2.5 ± 0.3%. For the same compound, the “KCa2.3 blocking effect (in words)” value in data set [2] (micromolar concentrations) is reported as “no blocking effects”. Further, in data set [3] (flufenamic acid and caffeic acid 10 and 50 µM, 13c 1 µM), the “hKv1.2 blocking effect (in words)” value was “did not block”. In addition, the half-maximal effective concentration (EC50) in data set [4] is around 30 µM; in data set [8] (whole-cell, 3T3 fibroblasts, read-out: EC50 of KCa3.1 inhibition), 1.6 µM; in data set [9], around 5 µM. Also, the “potentiation of KCa1.1” value in [5] (10 µM) amounted to 2.7 fold. The “% of control at 10 µM” value in data set [5] (hKCa1.1, compound 10 µM) was determined as 270 ± 106%. For the same compound, in data set [6], the “hERG effect (in words)” value was “slight potentiation”. In [7], the activity at 10 µM was determined as 116 ± 15%. The remaining activity at 1 µM in [8] (KCa3.1 whole-cell current, 3T3 fibroblasts, 1 µM free Ca2+ in pipette, compound 1 µM, mean ± SEM, n ≥3, read-out: % of control at 1 µM) was determined as 65 ± 4%. Moreover, the “KCa3.1 blocking effect (in words)” value in data set [8] (whole-cell, 3T3 fibroblasts, concentrations up to 50 µM as in Table 1) was “Complete inhibition”.
